Laboratory results taken from patent USRE32268E, “Therapeutic composition and method of therapeutically treating warm blooded animals therewith” (Strategic Medical Research Corp., priority 1983, dated 1986).
Where two headings read alike, the source gives them in different places.

Assays:
[1] = tested on: influenza A2 virus, Hong Kong strain; assay: antiviral potency against influenza A2 virus, Hong Kong strain, in tissue culture (baby hamster kidney cell line); type: cell-based; settings: for log reduction at 3 µg/mL / log reduction at 10 µg/mL: read-out: Log Decrease in Infectivity of Virus Inoculum
Description: Well established methodology of the prior art was employed to determine the antiviral potency of compounds against influenza A2 virus, Hong Kong strain, in tissue cultures, employing the baby hamster kidney cell line (see R. L. Muldoon, L. Mezny and G. G. Jackson in Antimicrobial Agents and Chemotherapy 2:224-228, 1972). Virus infectivity was evaluated by both hemagglutination techniques and cytopathogenic effects, with identical results for each method. In Table 1 below, the virus-inhibiting effects of two low drug concentrations, 3 and 10 μg/ml, are depicted. Results are given as the log decrease in infectivity of the virus inoculum. A log decrease of 4.0 is the maximum obtainable, representing complete suppression of virus growth in the system. The virus inoculum of day 0 was always 100 times that amount required to kill 50% of the tissue culture cells (100 TCD50).

[2] = tested on: herpes simplex virus; assay: organism not typed; type: cell-based
[3] = tested on: influenza A2/Hong Kong disease; assay: suppression of influenza A2/Hong Kong disease in mice; type: in vivo; settings: infected treated, 40 mg/Kg orally, at 8 days
[4] = tested on: influenza A/PR/8; assay: prevention of death in mice ill with a lethal influenza A/PR/8 infection; type: in vivo; settings: once 90 minutes before infection; for % of Population Protected / % Mortality: 8 days; for % Mortality: control 95; for Mortality Frequency at 8 Days: control 42/44
Description: The above medication was also examined for its capacity to prevent death in mice ill with a lethal influenza A/PR/8 infection. The drug was given subcutaneously at 3 dose levels, once 90 minutes before infection.

[5] = 3 μg/ml, inoculum 100 TCD50, 4.0 is the maximum obtainable
[6] = 10 μg/ml, inoculum 100 TCD50, 4.0 is the maximum obtainable
[7] = herpes simplex virus, tissue culture

3-O-2'-(N',N'-dimethylaminopropyl)-D-glucopyranose
Log Decrease in Infectivity of Virus Inoculum [1, 5]: 1.0 log
Log Decrease in Infectivity of Virus Inoculum [1, 6]: 2.0 log
Concentration required to exert 50% inhibition of herpes-induced plaque formation [2]: 3 µg/mL
Concentration required to exert 100% inhibition of herpes-induced plaque formation [2]: > 20 µg/mL

CN1CCC(O[C@@H]2[C@H]3OC(C)(C)O[C@H]3O[C@@H]2[C@H]2COC(C)(C)O2)CC1 [1,2,5,6-di-O--isopropylidene-3-O--4'-(N--methyl-piperidyl)-D-glucofuranose]
IC50 ([2]; read-out: Concentration required to exert 50% inhibition of herpes-induced plaque formation, herpes simplex virus, tissue culture): < 3 µg/mL

CCN(CC)CCOC1C(C2COC(C)(C)O2)OC2OC(C)(C)OC21 [1,2:5,6-di-O-isopropylidene-3-O-2'-(N',N'-diethylaminoethyl)-D-glucofuranose]
Concentration required to exert 50% inhibition of herpes-induced plaque formation [2, 7]: 6 µg/mL
Concentration required to exert 100% inhibition of herpes-induced plaque formation [2, 7]: 30 µg/mL

CCN(CC)CCO[C@H]1[C@H](O)[C@@H](CO)OC(O)[C@@H]1O (stereo partly drawn) [3-O-2'-(N',N'-diethylaminoethyl)-D-glucose]
log reduction at 3 µg/mL [1, 5]: 0.5
log reduction at 10 µg/mL [1, 6]: 1

CN(C)CCO[C@H]1[C@H](O)[C@@H](CO)OC(O)[C@@H]1O (stereo partly drawn) [3-O-2'-(N',N'-dimethylaminoethyl)-D-glucopyranose]
log reduction at 3 µg/mL [1, 5]: 2.5
log reduction at 10 µg/mL [1, 6]: 3.5

CC(CO[C@H]1[C@H](O)[C@@H](CO)OC(O)[C@@H]1O)CN(C)C (stereo partly drawn) [3-O-3'-(2',N',N'-trimethylamino-n-propyl)-D-glucopyranose]
log reduction at 3 µg/mL [1, 5]: 2.4
log reduction at 10 µg/mL [1, 6]: 3

CN(C)CCCO[C@H]1[C@H](O)[C@@H](CO)OC(O)[C@@H]1O (stereo partly drawn) [3-O-3'-(N',N'-dimethylamino-n-propyl)-D-glucopyranose]
relative antiviral potency ([1]; influenza A2, among tested derivatives): the most potent effect
log reduction at 3 µg/mL [1]: 3.2
log reduction at 10 µg/mL [1]: 4
relative antiviral potency [2]: the most potent derivative
Frequency of Normal Lungs (<170 mg) ([3]; normal 12/21, infected control 1/21): 13/21
Average Lung Weight ([3]; beginning 24 hours post-infection, 50% of drug 1,2-acetone-blocked, normal 160, infected control 258): 177 mg
% Disease Suppression ([3]; beginning 24 hours post-infection, lung weight): 82%
% of Population Protected ([4]; 10 mg/Kg subcutaneously): 14%
% Mortality ([4]; 10 mg/Kg subcutaneously): 81%
Mortality Frequency at 8 Days ([4]; 10 mg/Kg subcutaneously): 18/22
% of Population Protected ([4]; 40 mg/Kg subcutaneously): 23%
% Mortality ([4]; 40 mg/Kg subcutaneously): 72%
Mortality Frequency at 8 Days ([4]; 40 mg/Kg subcutaneously): 16/22
% of Population Protected ([4]; 160 mg/Kg subcutaneously): 50%
% Mortality ([4]; 160 mg/Kg subcutaneously): 45%
Mortality Frequency at 8 Days ([4]; 160 mg/Kg subcutaneously): 10/22

NCCCO[C@H]1[C@H](O)[C@@H](CO)OC(O)[C@@H]1O (stereo partly drawn) [3-O--3'-n-propylamino-D-glucose, 3-O-3'-(n-propylamino)-D-glucopyranose]
IC100 ([2]; read-out: Concentration required to exert 100% inhibition of herpes-induced plaque formation, herpes simplex virus, tissue culture): 20 µg/mL

CN1CCC(O[C@H]2[C@H](O)[C@@H](CO)OC(O)[C@@H]2O)CC1 (stereo partly drawn) [3-O--4'-(N--methylpiperidyl)-D-glucose, 3-O-4'-(N-methylpiperidyl)-D-glucopyranose]
log reduction at 3 µg/mL [1]: 2.5
log reduction at 10 µg/mL [1]: 3.5

CC(CN(C)C)OC[C@H]1OC(O)[C@H](O)[C@@H](O)[C@H]1O (stereo partly drawn) [6-O-2'-(N',N'-dimethylaminopropyl)-D-galactose]
Log Decrease in Infectivity of Virus Inoculum [1, 5]: 0.1 log
Log Decrease in Infectivity of Virus Inoculum [1, 6]: 0.5 log

CN(C)CCCOC[C@H]1OC(O)[C@H](O)[C@@H](O)[C@H]1O (stereo partly drawn) [6-O-3'-(N',N'-dimethylamino-n-propyl)-D-galactopyranose]
log reduction at 3 µg/mL [1, 5]: 1
log reduction at 10 µg/mL [1, 6]: 2

CC(CN(C)C)O[C@H]1O[C@H](CO)[C@@H](O)[C@H](O)[C@H]1O (stereo partly drawn) [α-N,N--dimethylaminoisopropylglucoside, α-N,N-dimethylaminoisopropyl-D-glucoside]
Log Decrease in Infectivity of Virus Inoculum [1, 5]: 1.5 log
Log Decrease in Infectivity of Virus Inoculum [1, 6]: 2.5 log
Concentration required to exert 50% inhibition of herpes-induced plaque formation [2, 7]: 10 µg/mL
Concentration required to exert 100% inhibition of herpes-induced plaque formation [2, 7]: > 50 µg/mL
